From the NIST ThermoML archive (doi:10.1021/je9004992)
Numbers after ± are expanded uncertainties.

Assay: molar heat capacity at constant pressure
Conditions: Liquid, Small sample (50 mg) DSC

CCn1cc[n+](C)c1.F[B-](F)(F)F [1-ethyl-3-methylimidazolium tetrafluoroborate]
molar heat capacity at constant pressure [J/K/mol]
Conditions | 283.15 K | 288.15 K | 293.15 K | 298.15 K | 303.15 K | 308.15 K | 313.15 K | 318.15 K | 323.15 K
100 kPa | 300.19 ± 4.7 | 301.67 ± 4.7 | 303.23 ± 4.7 | 304.87 ± 4.7 | 306.58 ± 4.8 | 308.36 ± 4.8 | 310.23 ± 4.8 | 312.17 ± 4.8 | 314.18 ± 4.9
2000 kPa | 300.22 ± 4.7 | 301.7 ± 4.7 | 303.26 ± 4.7 | 304.9 ± 4.7 | 306.61 ± 4.8 | 308.4 ± 4.8 | 310.26 ± 4.8 | 312.2 ± 4.8 | 314.21 ± 4.9
4000 kPa | 300.24 ± 4.7 | 301.73 ± 4.7 | 303.29 ± 4.7 | 304.93 ± 4.7 | 306.64 ± 4.8 | 308.43 ± 4.8 | 310.29 ± 4.8 | 312.23 ± 4.8 | 314.24 ± 4.9
6000 kPa | 300.27 ± 4.7 | 301.76 ± 4.7 | 303.32 ± 4.7 | 304.96 ± 4.7 | 306.67 ± 4.8 | 308.46 ± 4.8 | 310.32 ± 4.8 | 312.26 ± 4.8 | 314.27 ± 4.9
8000 kPa | 300.3 ± 4.7 | 301.79 ± 4.7 | 303.35 ± 4.7 | 304.99 ± 4.7 | 306.7 ± 4.8 | 308.49 ± 4.8 | 310.35 ± 4.8 | 312.29 ± 4.8 | 314.3 ± 4.9
10000 kPa | 300.33 ± 4.7 | 301.82 ± 4.7 | 303.38 ± 4.7 | 305.02 ± 4.7 | 306.73 ± 4.8 | 308.52 ± 4.8 | 310.38 ± 4.8 | 312.32 ± 4.8 | 314.33 ± 4.9
12000 kPa | 300.35 ± 4.7 | 301.85 ± 4.7 | 303.41 ± 4.7 | 305.05 ± 4.7 | 306.77 ± 4.8 | 308.55 ± 4.8 | 310.42 ± 4.8 | 312.35 ± 4.8 | 314.36 ± 4.9
14000 kPa | 300.38 ± 4.7 | 301.87 ± 4.7 | 303.44 ± 4.7 | 305.08 ± 4.7 | 306.8 ± 4.8 | 308.59 ± 4.8 | 310.45 ± 4.8 | 312.38 ± 4.8 | 314.39 ± 4.9
20000 kPa | 300.46 ± 4.7 | 301.96 ± 4.7 | 303.53 ± 4.7 | 305.18 ± 4.7 | 306.89 ± 4.8 | 308.68 ± 4.8 | 310.54 ± 4.8 | 312.47 ± 4.8 | 314.48 ± 4.9
30000 kPa | 300.6 ± 4.7 | 302.1 ± 4.7 | 303.68 ± 4.7 | 305.33 ± 4.7 | 307.05 ± 4.8 | 308.84 ± 4.8 | 310.7 ± 4.8 | 312.63 ± 4.8 | 314.63 ± 4.9
40000 kPa | 300.73 ± 4.7 | 302.25 ± 4.7 | 303.83 ± 4.7 | 305.49 ± 4.7 | 307.21 ± 4.8 | 309 ± 4.8 | 310.86 ± 4.8 | 312.79 ± 4.8 | 314.78 ± 4.9
50000 kPa | 300.87 ± 4.7 | 302.39 ± 4.7 | 303.98 ± 4.7 | 305.64 ± 4.7 | 307.37 ± 4.8 | 309.16 ± 4.8 | 311.02 ± 4.8 | 312.94 ± 4.8 | 314.93 ± 4.9
60000 kPa | 301 ± 4.7 | 302.54 ± 4.7 | 304.13 ± 4.7 | 305.8 ± 4.7 | 307.52 ± 4.8 | 309.32 ± 4.8 | 311.17 ± 4.8 | 313.1 ± 4.8 | 315.08 ± 4.9

CCCCn1cc[n+](C)c1.F[B-](F)(F)F [1-butyl-3-methylimidazolium tetrafluoroborate]
molar heat capacity at constant pressure [J/K/mol]
Conditions | 283.15 K | 288.15 K | 293.15 K | 298.15 K | 303.15 K | 308.15 K | 313.15 K | 318.15 K | 323.15 K
100 kPa | 360.25 ± 5.6 | 362.17 ± 5.6 | 364.16 ± 5.6 | 366.2 ± 5.7 | 368.3 ± 5.7 | 370.45 ± 5.7 | 372.67 ± 5.8 | 374.95 ± 5.8 | 377.29 ± 5.8
2000 kPa | 360.28 ± 5.6 | 362.2 ± 5.6 | 364.17 ± 5.6 | 366.21 ± 5.7 | 368.31 ± 5.7 | 370.47 ± 5.7 | 372.69 ± 5.8 | 374.97 ± 5.8 | 377.31 ± 5.8
4000 kPa | 360.31 ± 5.6 | 362.22 ± 5.6 | 364.19 ± 5.6 | 366.23 ± 5.7 | 368.33 ± 5.7 | 370.49 ± 5.7 | 372.71 ± 5.8 | 374.99 ± 5.8 | 377.34 ± 5.8
6000 kPa | 360.34 ± 5.6 | 362.24 ± 5.6 | 364.21 ± 5.6 | 366.25 ± 5.7 | 368.34 ± 5.7 | 370.5 ± 5.7 | 372.73 ± 5.8 | 375.01 ± 5.8 | 377.36 ± 5.8
8000 kPa | 360.37 ± 5.6 | 362.27 ± 5.6 | 364.23 ± 5.6 | 366.26 ± 5.7 | 368.36 ± 5.7 | 370.52 ± 5.7 | 372.74 ± 5.8 | 375.03 ± 5.8 | 377.39 ± 5.8
10000 kPa | 360.39 ± 5.6 | 362.29 ± 5.6 | 364.25 ± 5.6 | 366.28 ± 5.7 | 368.37 ± 5.7 | 370.53 ± 5.7 | 372.76 ± 5.8 | 375.05 ± 5.8 | 377.41 ± 5.8
12000 kPa | 360.42 ± 5.6 | 362.31 ± 5.6 | 364.27 ± 5.6 | 366.3 ± 5.7 | 368.39 ± 5.7 | 370.55 ± 5.7 | 372.78 ± 5.8 | 375.08 ± 5.8 | 377.44 ± 5.8
14000 kPa | 360.45 ± 5.6 | 362.34 ± 5.6 | 364.29 ± 5.6 | 366.31 ± 5.7 | 368.4 ± 5.7 | 370.57 ± 5.7 | 372.8 ± 5.8 | 375.1 ± 5.8 | 377.47 ± 5.8
20000 kPa | 360.54 ± 5.6 | 362.4 ± 5.6 | 364.35 ± 5.6 | 366.36 ± 5.7 | 368.45 ± 5.7 | 370.61 ± 5.7 | 372.85 ± 5.8 | 375.16 ± 5.8 | 377.54 ± 5.8
30000 kPa | 360.68 ± 5.6 | 362.52 ± 5.6 | 364.44 ± 5.7 | 366.45 ± 5.7 | 368.53 ± 5.7 | 370.69 ± 5.7 | 372.94 ± 5.8 | 375.26 ± 5.8 | 377.67 ± 5.8
40000 kPa | 360.82 ± 5.6 | 362.64 ± 5.6 | 364.54 ± 5.7 | 366.53 ± 5.7 | 368.61 ± 5.7 | 370.77 ± 5.7 | 373.03 ± 5.8 | 375.37 ± 5.8 | 377.8 ± 5.8
50000 kPa | 360.96 ± 5.6 | 362.75 ± 5.6 | 364.64 ± 5.7 | 366.61 ± 5.7 | 368.69 ± 5.7 | 370.85 ± 5.8 | 373.12 ± 5.8 | 375.47 ± 5.8 | 377.93 ± 5.8
60000 kPa | 361.11 ± 5.6 | 362.87 ± 5.6 | 364.73 ± 5.7 | 366.7 ± 5.7 | 368.77 ± 5.7 | 370.93 ± 5.8 | 373.21 ± 5.8 | 375.58 ± 5.8 | 378.05 ± 5.9
